Source: patent publication US5100907A, “Hydantoin esters” (Lonza, Inc., priority 1990, dated 1992)

Legend:
Staphylococcus aureus = assay: Antimicrobial study against Staphylococcus aureus (gram-positive bacteria); assay type: cell-based; details: methylolated C8/10 10,800 ppm, methylolated lauric 11,400 ppm, DMDMH 3,000 ppm, others 14,700 ppm
Description: (§1) The antimicrobial properties of typical esters (I) and (Ia) were tested by minimum inhibitory concentration (MIC) tests, along with certain known substances, against […] strains of organisms: a mold, Aspergillus niger; a gram-positive bacteria, Staphylococcus aureus; and two gram-negative bacteria, Escherichia coli and Pseudomonas aeruginosa. […] These tests were used to determine any effect on biocidal activity of the varying chain length of the ester.
(§2) The known substances, on which identical tests were also performed, included the biocide, dimethyloldimethylhydantoin or DMDMH (iv), and a series of three surfactants, i.e., the three common emulsifiers, sodium lauryl sulfate (SLS); ethylene glycol distearate (EGDS), in the form of the commercial product PEGOSPERSE 50 DS (Lonza Inc.); and polyoxyethylene 20 sorbitan monoleate (POE 20 SMO), in the form of the commercial product GLYCOSPERSE 0 20 (Lonza Inc.).
(§3) The tests entailed contaminating a preexisting micro-colony with a known quantity (ppm, concentration) of test material. Each colony was then examined periodically over a one week period. […] A test was deemed non-efficacious when there was no decrease in colony size. In an effort to avoid any possible solvent effect, the micro-study was conducted in a totally aqueous solvent system without use of any other solvent.

Escherichia coli = assay: Antimicrobial study against Escherichia coli (gram-negative bacteria); assay type: cell-based; details: methylolated C8/10 10,800 ppm, methylolated lauric 11,400 ppm, DMDMH 3,000 ppm, others 14,700 ppm
Description: as §1, §2, §3

[1] = as formaldehyde donor; cited from earlier work
Aspergillus niger = assay: Antimicrobial study against Aspergillus niger (mold); assay type: cell-based; details: methylolated C8/10 10,800 ppm, methylolated lauric 11,400 ppm, DMDMH 3,000 ppm, others 14,700 ppm
Description: as §1, §2, §3

Pseudomonas aeruginosa = assay: Antimicrobial study against Pseudomonas aeruginosa (gram-negative bacteria); assay type: cell-based; details: methylolated C8/10 10,800 ppm, methylolated lauric 11,400 ppm, DMDMH 3,000 ppm, others 14,700 ppm
Description: as §1, §2, §3

CC1(C)C(=O)N(CO)C(=O)N1CO [DMDMH (iv), 1,3-dihydroxymethyl-5,5-dimethyl-1,3-diazacyclopentane-2,4-dione, reference compound]
Colony Count (Staphylococcus aureus; Day 0): TNC | Colony Count (Staphylococcus aureus; Day 1): TNC | Colony Count (Staphylococcus aureus; Day 2): TNC | Colony Count (Staphylococcus aureus; Day 3): < 0.01 × 1,000 | Colony Count (Staphylococcus aureus; Day 7): < 0.01 × 1,000 | Colony Count (Escherichia coli; Day 0): TNC | Colony Count (Escherichia coli; Day 1): TNC | Colony Count (Escherichia coli; Day 2): TNC | Colony Count (Escherichia coli; Day 3): < 0.01 × 1,000 | Colony Count (Escherichia coli; Day 7): < 0.01 × 1,000 | minimum inhibitory concentration (MIC) [1]: 0.1% | Colony Count (Aspergillus niger; Day 0): 400 × 1,000 | Colony Count (Aspergillus niger; Day 1): < 0.03 × 1,000 | Colony Count (Aspergillus niger; Day 2): < 0.01 × 1,000 | Colony Count (Aspergillus niger; Day 3): < 0.01 × 1,000 | Colony Count (Aspergillus niger; Day 7): < 0.01 × 1,000 | Colony Count (Pseudomonas aeruginosa; Day 0): TNC | Colony Count (Pseudomonas aeruginosa; Day 1): TNC | Colony Count (Pseudomonas aeruginosa; Day 2): < 0.01 × 1,000 | Colony Count (Pseudomonas aeruginosa; Day 3): < 0.01 × 1,000 | Colony Count (Pseudomonas aeruginosa; Day 7): < 0.01 × 1,000

CC1(C)C(=O)NC(=O)N1CO [MDMH (iii), 1-hydroxymethyl-5,5-dimethyl-1,3-diazacyclopentane-2,4-dione]
minimum inhibitory concentration (MIC) [1]: 0.2%
